Ki data for six molecules are collected here from ChEMBL document CHEMBL1131321, “Pharmacophoric requirements for cannabinoid side chains: multiple bond and C1'-substituted delta 8-tetrahydrocannabinols” (J Med Chem, 1998).

One assay deals with Cannabinoid receptor 1 (Rattus norvegicus, UniProt P20272). In words: The compound was evaluated for its affinity towards cannabinoid receptor 1 (CB1) in rat brain. Type of assay: tissue-based.
The target of a further assay is Cannabinoid receptor 2 (Mus musculus, UniProt P47936). Nature of the assay: The compound was evaluated for its affinity towards cannabinoid receptor 2 (CB2) in mouse spleen. The assay is classed as tissue-based.
Cannabinoid receptor 2, sequence (P47936 whole entry): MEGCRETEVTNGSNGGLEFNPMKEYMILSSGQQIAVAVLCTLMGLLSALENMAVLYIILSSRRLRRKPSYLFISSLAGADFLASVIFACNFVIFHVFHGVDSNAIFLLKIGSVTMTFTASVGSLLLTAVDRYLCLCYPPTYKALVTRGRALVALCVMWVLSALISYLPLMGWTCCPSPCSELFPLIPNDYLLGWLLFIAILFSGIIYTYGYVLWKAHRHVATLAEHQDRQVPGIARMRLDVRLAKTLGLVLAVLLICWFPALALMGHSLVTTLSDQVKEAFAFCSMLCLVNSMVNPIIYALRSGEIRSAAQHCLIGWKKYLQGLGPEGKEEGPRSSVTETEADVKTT

Cannabinoid receptor 1, sequence (P20272 whole entry): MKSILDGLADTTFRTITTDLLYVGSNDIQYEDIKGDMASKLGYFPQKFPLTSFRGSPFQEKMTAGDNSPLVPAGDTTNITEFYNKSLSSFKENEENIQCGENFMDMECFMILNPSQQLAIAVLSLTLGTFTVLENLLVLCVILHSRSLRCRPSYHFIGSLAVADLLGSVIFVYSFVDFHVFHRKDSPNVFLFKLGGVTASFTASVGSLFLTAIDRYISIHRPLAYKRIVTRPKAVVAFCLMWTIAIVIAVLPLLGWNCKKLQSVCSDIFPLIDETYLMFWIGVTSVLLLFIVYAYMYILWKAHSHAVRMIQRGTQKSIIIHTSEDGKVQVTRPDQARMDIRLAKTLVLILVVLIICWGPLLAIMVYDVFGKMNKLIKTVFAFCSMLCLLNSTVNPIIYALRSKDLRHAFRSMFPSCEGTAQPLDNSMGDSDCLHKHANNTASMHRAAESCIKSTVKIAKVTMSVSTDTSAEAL

Consider `CCCCCCC(O)c1cc(O)c2c(c1)OC(C)(C)[C@@H]1CC=C(C)C[C@@H]21` (stereo partly specified), for which the Ki (in general, the equilibrium dissociation constant of an inhibitor or competing ligand from its target) at Cannabinoid receptor 1 came out at 0.0864 µM; at Cannabinoid receptor 2 (read-out: Ki) it was 0.0656 µM.

As to `CCCCCCC1(c2cc(O)c3c(c2)OC(C)(C)[C@@H]2CC=C(C)C[C@@H]32)SCCS1`, at Cannabinoid receptor 2, the inhibition constant Ki turned out to be 0.00052 µM.

For `CCCCCCC1(c2cc(O)c3c(c2)OC(C)(C)[C@@H]2CC=C(C)C[C@@H]32)CC1`, the Ki at Cannabinoid receptor 1 came out at 0.00217 µM; at Cannabinoid receptor 2 (read-out: Ki) it was 0.0033 µM. On the same counts, the results for `CCCCCC#Cc1cc(O)c2c(c1)OC(C)(C)[C@@H]1CC=C(C)C[C@@H]21` are 0.00065 µM and 0.0031 µM. On to `C=C(C)[C@@H]1CCC(C)=C[C@H]1c1c(O)cc(C2(CCCCCC)SCCS2)cc1O`, for which the inhibition constant Ki was 0.136 µM at Cannabinoid receptor 1 and 0.0504 µM at Cannabinoid receptor 2 (read-out: Ki).

As for `CCCCCCC(=O)c1cc(O)c2c(c1)OC(C)(C)[C@@H]1CC=C(C)C[C@@H]21`, the values for the Ki on Cannabinoid receptor 1 and on Cannabinoid receptor 2 (read-out: Ki) were 0.0217 µM and 0.0837 µM, respectively.
